# Experimental data reported in patent US8323911B2, “High throughput assay for discovering new inhibitors of the GIRK1/4 channel” (University of South Carolina, priority 2010, dated 2012).
# Ends that are not written are not given here.
# Experiments:
# [1] = target: T1, IK,Ach (GIRK1/4 channel) (Mus musculus, UniProt P48545+P63250); test: Patch-clamp recording of whole-cell IK,Ach currents in HL-1 cells; assay type: cell-based
# T1 construct: consistent with the expression of GIRK1/4 channels in the HL-1 cells; endogenous in cells; host or cells: HL-1 immortalized cardiac atrial cells
# T1 sequence (P63250 1-501): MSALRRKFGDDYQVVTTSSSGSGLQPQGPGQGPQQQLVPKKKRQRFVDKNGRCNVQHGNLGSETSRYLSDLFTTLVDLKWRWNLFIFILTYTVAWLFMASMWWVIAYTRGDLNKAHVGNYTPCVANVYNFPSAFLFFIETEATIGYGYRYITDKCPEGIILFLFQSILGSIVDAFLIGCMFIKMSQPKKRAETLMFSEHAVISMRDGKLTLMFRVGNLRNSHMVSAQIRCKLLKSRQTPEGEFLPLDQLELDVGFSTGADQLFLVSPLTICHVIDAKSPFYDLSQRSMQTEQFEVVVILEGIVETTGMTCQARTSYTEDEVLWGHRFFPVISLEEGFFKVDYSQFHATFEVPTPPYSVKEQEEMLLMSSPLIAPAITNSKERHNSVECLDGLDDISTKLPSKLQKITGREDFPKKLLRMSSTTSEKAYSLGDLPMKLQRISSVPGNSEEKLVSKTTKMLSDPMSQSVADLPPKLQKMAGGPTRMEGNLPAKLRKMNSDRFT
# T1 sequence (P48545 1-419): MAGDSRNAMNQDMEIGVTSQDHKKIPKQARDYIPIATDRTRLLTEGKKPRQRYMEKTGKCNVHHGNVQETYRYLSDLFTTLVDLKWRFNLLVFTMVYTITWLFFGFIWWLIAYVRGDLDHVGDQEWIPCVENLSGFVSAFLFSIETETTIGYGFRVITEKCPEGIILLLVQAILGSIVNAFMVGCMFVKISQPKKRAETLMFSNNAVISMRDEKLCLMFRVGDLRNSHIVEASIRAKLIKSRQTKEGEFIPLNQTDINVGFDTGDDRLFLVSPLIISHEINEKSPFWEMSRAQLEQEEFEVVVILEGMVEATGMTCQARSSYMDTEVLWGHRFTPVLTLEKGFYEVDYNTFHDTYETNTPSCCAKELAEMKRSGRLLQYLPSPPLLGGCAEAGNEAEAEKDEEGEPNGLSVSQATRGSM
# From the text: A patch-clamp method was used to record the whole-cell IK,Ach using L/M EPC-7 (Adams & List Associates, Great Neck, N.Y.) and Axopatch 200 (Axon Instruments, Sunnyvale, Calif.) amplifiers. The procedures for measuring cardiac K^+ channels have been described in Walsh K B, Zhang J: Neonatal rat cardiac fibroblasts express three types of voltage-gated K^+ channels: regulation of a transient outward current by protein kinase C, Am J Physiol Heart Circ Physiol 2008; 294:H1010-H1017, incorporated by reference herein. Pipettes were made from borosilicate glass capillaries (World Precision Instruments, Sarasota, Fla.) and had resistances of 1 to 2 Mohms when filled with internal solution. All experiments were conducted on isolated, noncoupled HL-1 cells at room temperature (22-24° C.). For the measurement of IK,Ach, cells were placed in a normal Tyrode's solution consisting of 132 mM NaCl, 5 mM KCl, 1 mM CaCl2, 1 mM MgCl2, 5 mM dextrose, and 5 mM HEPES (pH 7.4; with NaOH) (280 mOsm). INa was blocked with tetrodotoxin (10 μM) and the Na^+ channels inactivated by maintaining the myocytes at a holding potential of −40 mV. L-type Ca^2+ channels were blocked with 500 nM nisoldipine. The internal solution was made from 50 mM KCl, 60 mM K^+-glutamate, 2 mM MgCl2, 1 mM CaCl2, 11 mM EGTA, 3 mM adenosine triphosphate (ATP), and 10 mM HEPES (pH 7.3; with KOH) (280 mOsm).
# Membrane currents were recorded with 12-bit analog/digital converters (Axon Instruments). Data were sampled at 5 KHz and filtered at 1 KHz with a low-pass Bessel filter (Frequency Devices, Ottawa, Ill.). Series resistance was compensated to give the fastest possible capacity transient without producing oscillations. With this procedure, more than 70% of the series resistance could be compensated. Following the measurement of the HL-1 cell background current, IK,Ach was activated by the addition 10 μM carbachol using a rapid perfusion system. IK,Ach was defined as the BaCl2-sensitive current (see FIGS. 1A-1C, illustrating expression of GIRK1/4 channels in HL-1 cells). IK,Ach blockers were added and inhibition determined immediately after carbachol-induced activation. This limited errors in quantifying drug block due to GIRK1/4 channel desensitization and rundown. Averaged current values presented are means±SE.
# [2] = target: T2, GIRK1/4 channel (Mus musculus, UniProt P48545+P63250); test: GIRK1/4 channel FLIPR assay (DiBAC4(3) fluorescence, carbachol-stimulated HL-1 cells); assay type: cell-based; details: for IC50: 5 min pretreatment, read-out: IC50 for drug block of the carbachol signal; for inhibition of the carbachol signal during pretreatment: 1 μM; for block of the carbachol-sensitive fluorescence signal: at the concentrations tested
# T2 construct: consistent with the expression of GIRK1/4 channels in the HL-1 cells; endogenous in cells; host or cells: HL-1 immortalized cardiac atrial cells
# T2 sequence (P63250 1-501): T1 sequence (P63250 1-501)
# T2 sequence (P48545 1-419): T1 sequence (P48545 1-419)
# Description: HL-1 cells were incubated for 1 h in Tyrode's solution containing 5 μM DiBAC4(3) (AnaSpec, Fremont, Calif.) and fluorescent signals recorded using a Synergy2 microplate reader (BioTek, Winosski, Vt.) at 28° C. Test compounds were dissolved in DMSO at a stock concentration of 10 mM, diluted to various concentrations, and applied to the cells for 5 min prior to the fluorescent measurements. DiBAC4(3) was present in all experimental solutions. DMSO, up to 1% in Tyrode's solution, had no adverse effects on the cell response. Carbachol or control solution (20 μL) was added to each well (total volume=220 μL) at time zero using the Synergy2 injector system. Data points were collected at 10-s intervals over a 300-s sampling period at excitation and emission wavelengths of 480 and 520 nm, respectively. Positive (carbachol or carbachol+1 mM BaCl2) and negative (water or DMSO) control experiments were performed to calculate Z′ factors. The Z′ factor is defined as Z′=1=−(3σP+3σN)/|μP−μN|, where μP and μN are the means of the positive control and negative control signals, and σp and σN are the standard deviations of the positive control and negative control signals, respectively. Plates used for Z′ factor determination contained 2 rows each of positive and negative controls. Dose-response curves for selected compounds were obtained and drug potencies determined by fitting the data with the following curve: Max/(1+([drug]/IC50)^k), where the IC50 is the concentration of the compound producing a 50% decrease in the maximal carbachol response (Max), and k is the slope factor. Interference of the test compounds with the DiBAC4(3) fluorescence was determined in the absence of cells by adding various concentrations of the compounds to Tyrode's solution containing the dye.
# [3] = test system: GIRK channels; details: HEK-293 cells; cited from earlier work
# [4] = test system: IK,Ach; details: patch clamp analysis; read-out: IC50 measured in primary cultures of guinea pig atrial myocytes; cited from earlier work
compound,measurement,setting,value
[Ba+2].[Cl-].[Cl-] [BaCl2],block of carbachol-activated inward rectifying current,[1]; 0.5 mM BaCl2,completely blocked
same,block of the carbachol signal,[2]; 1 mM,blocked
"N/C(=N\C(=O)c1nc(Cl)c(N)nc1N)NCc1ccc(Cl)c(Cl)c1 [DCB, dichlorobenzamil]",IC50,"[2]; HL-1 cells, DiBAC4(3)",20 µM
"CCN(c1nc(N)c(C(=O)N=C(N)N)nc1Cl)C(C)C [EIPA, 5-(N-ethyl-N-isopropyl)-amiloride]",IC50,"[2]; HL-1 cells, DiBAC4(3)",0.8 µM
"NC(N)=NC(=O)c1nc(Cl)c(N2CCCCCC2)nc1N [HMA, 5-(N,N-hexamethylene)-amiloride]",IC50,"[2]; HL-1 cells, DiBAC4(3)",0.9 µM
"CC(C)N(C)c1nc(N)c(C(=O)N=C(N)N)nc1Cl [MIBA, 5-(N-methyl-N-isopropyl)-amiloride]",IC50,"[2]; HL-1 cells, DiBAC4(3)",2 µM
COc1ccc(CC(=O)Nc2cc3c(cc2[N+](=O)[O-])OC(C)(C)[C@H](O)[C@H]3NC2CC2)cc1 [NIP-142],concentrations blocking GIRK channels,[3],nanomolar concentrations
"CC(C)(C)NCC(O)COc1ccccc1C(=O)CCc1ccccc1 (centres unmarked) [TBPP, 1-{2-[3-(tert-butylamino)-2-hydroxypropoxy]phenyl}-3-phenyl-1-propanone]",IC50,"[2]; HL-1 cells, DiBAC4(3)",2 µM
N=C(N)NC(=O)c1nc(Cl)c(N)nc1N [amiloride],block of the carbachol-sensitive signal,[2]; concentrations up to 100 μM,only a partial block
CN1[C@@H]2CC[C@H]1C[C@@H](OC(=O)C(CO)c1ccccc1)C2 (some centres unmarked) [atropine],inhibition of the carbachol signal during pretreatment,[2],inhibited
NC(=NCc1ccccc1)NC(=O)c1nc(Cl)c(N)nc1N [benzamil],IC50,"[2]; HL-1 cells, DiBAC4(3)",13 µM
C[N+](C)(C)CCOC(N)=O [carbachol],peak carbachol-induced fluorescent signal (F/FO),"[2]; 10 μM carbachol, mean±SD, 4 plates",0.956±0.008
same,EC50,"[2]; HL-1 cells, DiBAC4(3), read-out: EC50 for the carbachol-sensitive fluorescent signal (activation of GIRK1/4 channel)",0.11 µM
same,carbachol-mediated decrease in the fluorescent signal,[2]; [K]o increased to 20 mM,completely eliminated
same,fold increase in the carbachol-sensitive signal,"[2]; extracellular K+ reduced from 5 mM to 1 mM, 3 plates",2.0±0.1 fold
O=C(NCC1CCCCN1)c1cc(OCC(F)(F)F)ccc1OCC(F)(F)F (centres unmarked) [flecainide],"block of IK,Ach current",[1]; 100 μM,strongly blocked
same,IC50,"[2]; HL-1 cells, DiBAC4(3)",56 µM
same,IC50,[4],20 µM
COc1ccc(Cl)cc1C(=O)NCCc1ccc(S(=O)(=O)NC(=O)NC2CCCCC2)cc1 [glybenclamide],block of the carbachol-sensitive fluorescence signal,[2],no block
CCCCCCCN(CC)CCCC(O)c1ccc(NS(C)(=O)=O)cc1 (centres unmarked) [ibutilide],IC50,"[2]; HL-1 cells, DiBAC4(3)",16 µM
NC(=Nc1ccccc1)NC(=O)c1nc(Cl)c(N)nc1N [phenamil],IC50,"[2]; HL-1 cells, DiBAC4(3)",13 µM
CCN(CC)CCNC(=O)c1ccc(N)cc1 [procainamide],block of the carbachol-sensitive fluorescence signal,[2],no block
CCCNCC(O)COc1ccccc1C(=O)CCc1ccccc1 (centres unmarked) [propafenone],IC50,"[1]; patch clamp, measured at −100 mV, 10 μM carbachol, read-out: IC50 for block of IK,Ach current",2 µM
same,IC50,"[2]; HL-1 cells, DiBAC4(3)",3 µM
C=C[C@H]1C[N@@]2CC[C@H]1C[C@@H]2[C@@H](O)c1ccnc2ccc(OC)cc12 [quinidine],IC50,"[2]; HL-1 cells, DiBAC4(3)",24 µM
CN1[C@@H]2C[C@@H](OC(=O)[C@H](CO)c3ccccc3)C[C@H]1[C@@H]1O[C@@H]12 [scopolamine],inhibition of the carbachol signal during pretreatment,[2],inhibited
CC(C)NCC(O)c1ccc(NS(C)(=O)=O)cc1 (centres unmarked) [sotalol],block of the carbachol-sensitive fluorescence signal,[2],no block
[5-(2-methyl-5-fluorophenyl)furan-2-ylcarbonyl]guanidine [KR-32568],change in the carbachol-sensitive fluorescence,[2]; drug concentrations up to 1 μM,no significant change
"tertiapin (ALCNCNRIIIPHMCWKKCGKK; ends and bridges not checked; cysteine pairing not given here; UniProt P56587 1-21, looked up) [Kir toxin]","block of IK,Ach current",[1]; 100 nM,strongly blocked
